One test has as its target T1, human recombinant COX-2 (Homo sapiens, UniProt P35354).
T1 construct: purchased Cayman Chemical Co. 60122
T1 sequence (P35354 18-604): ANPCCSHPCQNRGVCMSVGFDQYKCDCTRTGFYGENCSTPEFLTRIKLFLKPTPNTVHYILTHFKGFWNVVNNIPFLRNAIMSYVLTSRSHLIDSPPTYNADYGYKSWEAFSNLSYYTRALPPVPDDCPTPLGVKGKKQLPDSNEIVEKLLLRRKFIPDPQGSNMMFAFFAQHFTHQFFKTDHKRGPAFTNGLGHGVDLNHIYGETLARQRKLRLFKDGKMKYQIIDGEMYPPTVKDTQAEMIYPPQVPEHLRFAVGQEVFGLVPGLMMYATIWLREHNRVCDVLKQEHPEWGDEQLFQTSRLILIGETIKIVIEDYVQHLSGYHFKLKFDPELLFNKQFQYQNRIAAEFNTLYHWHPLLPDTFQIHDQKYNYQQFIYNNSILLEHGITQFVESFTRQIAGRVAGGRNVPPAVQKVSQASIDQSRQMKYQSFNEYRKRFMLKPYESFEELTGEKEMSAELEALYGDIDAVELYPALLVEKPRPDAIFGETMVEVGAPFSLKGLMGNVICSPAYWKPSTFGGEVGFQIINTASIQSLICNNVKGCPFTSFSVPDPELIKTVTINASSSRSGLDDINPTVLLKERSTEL
As to the kind of experiment: COX-2 inhibition, oxygraphic method (oxygen electrode). To be noted: no preincubation phase, approximate, from initial velocities. In kind it is biochemical. Here is the method: (§1) The assay was performed according to Meade et al. with minor modifications. An oxygen electrode chamber with integral stirring (Oxygraph System, Hansatech Instruments, King´s Lynn, U.K.) was calibrated daily to ambient temperature and air pressure. The assay buffer contained 0.1 M Tris-HCl buffer pH 7.4, 1 μM haematin, 2 mM phenol, 5 mM EDTA, 10 μM substrate (arachidonic acid or 2-AG) (final assay volume was 2 ml). After addition of (R)- or (S)-Flu-AM1 dissolved in ethanol (final assay concentration 1%), a baseline was established for 5 min before initiation of reaction by addition of 200 units ovine COX-1 or human recombinant COX-2. The change in oxygen consumption as a measurement of enzyme activity was monitored for approximately 5 min.

Test [1] addresses T2, rat brain FAAH (Rattus norvegicus, UniProt P97612).
T2 construct: the racemate was studied in rat brain homogenates, whereas mouse brain homogenates were used here; from tissue; host or cells: rat brain homogenates
T2 sequence (P97612 1-579): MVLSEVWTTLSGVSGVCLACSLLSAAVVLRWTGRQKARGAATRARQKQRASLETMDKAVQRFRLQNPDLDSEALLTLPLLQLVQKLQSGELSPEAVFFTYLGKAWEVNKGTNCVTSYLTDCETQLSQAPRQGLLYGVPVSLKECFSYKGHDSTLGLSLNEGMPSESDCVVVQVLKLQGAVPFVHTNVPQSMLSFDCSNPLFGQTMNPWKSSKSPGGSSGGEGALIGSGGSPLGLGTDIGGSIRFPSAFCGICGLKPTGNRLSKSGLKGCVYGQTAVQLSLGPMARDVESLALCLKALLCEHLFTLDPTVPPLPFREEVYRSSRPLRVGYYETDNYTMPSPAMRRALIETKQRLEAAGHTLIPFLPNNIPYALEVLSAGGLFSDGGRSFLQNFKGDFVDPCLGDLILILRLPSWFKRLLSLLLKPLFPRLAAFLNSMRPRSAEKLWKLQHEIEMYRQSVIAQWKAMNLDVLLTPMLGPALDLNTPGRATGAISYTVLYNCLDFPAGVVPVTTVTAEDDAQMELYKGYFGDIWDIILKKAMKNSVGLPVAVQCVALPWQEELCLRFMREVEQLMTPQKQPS
As to the kind of experiment: [3H]AEA hydrolysis in rat brain homogenates. To be noted: current authors, unpublished data; read-out: IC50 inhibition of [3H]AEA hydrolysis in rat brain homogenates. In kind it is biochemical.

The next test deals with T3, mouse brain FAAH (Mus musculus, UniProt O08914).
T3 construct: Brains from male B6CBAF1/J mice, stored at -80°C, were thawed, weighed and homogenized in cold buffer; from tissue; host or cells: brain of male B6CBAF1/J mice (washed membrane pellet homogenate)
T3 sequence (O08914 1-579): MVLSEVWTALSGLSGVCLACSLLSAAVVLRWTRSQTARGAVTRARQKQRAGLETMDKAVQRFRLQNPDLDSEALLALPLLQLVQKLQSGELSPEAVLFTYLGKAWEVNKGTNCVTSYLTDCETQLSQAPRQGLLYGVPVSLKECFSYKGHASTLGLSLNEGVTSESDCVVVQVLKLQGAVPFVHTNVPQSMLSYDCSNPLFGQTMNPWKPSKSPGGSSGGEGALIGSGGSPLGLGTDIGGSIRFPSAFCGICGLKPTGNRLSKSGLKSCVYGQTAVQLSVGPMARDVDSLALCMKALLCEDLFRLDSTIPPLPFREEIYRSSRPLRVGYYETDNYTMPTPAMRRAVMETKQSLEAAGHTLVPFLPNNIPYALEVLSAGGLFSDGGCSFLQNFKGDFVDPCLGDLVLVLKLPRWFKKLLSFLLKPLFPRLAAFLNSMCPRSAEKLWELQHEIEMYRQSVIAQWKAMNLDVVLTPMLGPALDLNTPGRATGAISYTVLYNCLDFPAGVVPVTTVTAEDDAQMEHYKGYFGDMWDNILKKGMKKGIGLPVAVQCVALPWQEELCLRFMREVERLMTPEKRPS
As to the kind of experiment: FAAH assay, [3H]AEA hydrolysis in mouse brain homogenates. In kind it is biochemical. The note with it: 0.5 μM [3H]AEA; read-out: IC50 inhibition of [3H]AEA hydrolysis in mouse brain homogenates. Here is the method:
Brains from male B6CBAF1/J mice, stored at -80°C, were thawed, weighed and homogenized in cold buffer (20 mM HEPES, 1 mM MgCl2 pH 7.0). Homogenates were centrifuged (35,000 g at 4°C for 20 min) before the pellet was resuspended in cold homogenization buffer. Centrifugation and resuspension was repeated twice. The suspension was incubated at 37°C for 15 min to degrade any endogenous substrate able to interfere with the FAAH assay. After centrifugation (35,000 g at 4°C for 20 min), the pellet was resuspended in cold buffer (50 mM Tris-HCl, 1mM EDTA, 3 mM MgCl2, pH 7.4). The protein concentration was determined according to the Bradford assay after which the samples were frozen in aliquots at -80°C. Ethical permission for the animal experiments was obtained from the local animal research ethical committee (Umeå Ethical Committee for Animal Research, Umeå, Sweden). FAAH was assayed using the method of Boldrup et al., whereby homogenates (0.3 μg protein / assay) in assay buffer (10 mM Tris-HCl, 1mM EDTA, pH 7.4), test compounds and substrate ([^3H]AEA in 10 mM Tris-HCl, 1mM EDTA, pH 7.4 containing 10 mg/ml fatty acid-free bovine serum, assay concentration 0.5 μM unless otherwise stated) were incubated for 10 min at 37°C. Thereafter, 400 μL activated charcoal (80 μL activated charcoal + 320 μL 0.5 M HCl) was added and the samples were placed on ice and centrifuged at 2500 rpm for 10 min. Aliquots (200 μL) of the supernatant was analyzed for tritium content by liquid scintillation spectroscopy with quench correction.

Another test concerns the target T4, ovine COX-1 (Ovis aries, UniProt P05979).
T4 construct: purchased Cayman Chemical Co. 60100
T4 sequence (P05979 25-600): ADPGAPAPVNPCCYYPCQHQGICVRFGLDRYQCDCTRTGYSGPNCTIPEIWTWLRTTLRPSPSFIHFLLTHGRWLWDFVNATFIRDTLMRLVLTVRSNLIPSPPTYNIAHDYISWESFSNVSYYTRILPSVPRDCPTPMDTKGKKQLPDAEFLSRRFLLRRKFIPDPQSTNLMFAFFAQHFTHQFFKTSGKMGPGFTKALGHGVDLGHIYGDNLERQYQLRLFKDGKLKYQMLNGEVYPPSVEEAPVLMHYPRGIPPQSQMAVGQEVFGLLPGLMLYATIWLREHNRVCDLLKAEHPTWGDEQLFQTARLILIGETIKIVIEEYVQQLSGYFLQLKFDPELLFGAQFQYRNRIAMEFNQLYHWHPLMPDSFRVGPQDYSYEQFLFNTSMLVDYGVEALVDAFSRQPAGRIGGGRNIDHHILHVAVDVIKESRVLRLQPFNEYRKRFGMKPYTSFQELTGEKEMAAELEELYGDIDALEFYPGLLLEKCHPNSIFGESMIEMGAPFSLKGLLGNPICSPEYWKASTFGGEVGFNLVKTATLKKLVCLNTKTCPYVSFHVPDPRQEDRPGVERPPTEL
Briefly: COX-1 inhibition, oxygraphic method (oxygen electrode). In kind it is biochemical. To be noted: 10 μM arachidonic acid; no preincubation phase; approximate, from initial velocities. Here is the method: as §1

Test [2] concerns the target T2, rat brain FAAH. To be noted: racemate; read-out: IC50 FAAH, rat brain homogenates; cited from earlier work.

Consider two compounds from publication PMC4583449, “Characterisation of (R)-2-(2-Fluorobiphenyl-4-yl)-N-(3-Methylpyridin-2-yl)Propanamide as a Dual Fatty Acid Amide Hydrolase: Cyclooxygenase Inhibitor” (PLoS ONE, 2015).

Several values for one entry are separate records, joined by “and”; a condition that tells them apart may be missing. Equal entries are not always repeated. Where two headings read alike, the source gives them in different places.

Take `Cc1cccnc1NC(=O)[C@@H](C)c1ccc(-c2ccccc2)c(F)c1` [(S)-Flu-AM1]: the half-maximal inhibitory concentration (IC50) at human recombinant COX-2 (10 μM 2-AG, read-out: IC50 COX-2 (2-AG)) was 0.7 µM and ~0.7 µM; at human recombinant COX-2 (10 μM arachidonic acid, read-out: IC50 COX-2 (arachidonic acid)), 10 µM and ~10 µM; on rat brain FAAH [1], 0.99 µM; on mouse brain FAAH, 11 µM; on ovine COX-1, 3 µM and ~3 µM.

Regarding `Cc1cccnc1NC(=O)C(C)c1ccc(-c2ccccc2)c(F)c1` (stereo not drawn) [Flu-AM1, 2-(2-fluorobiphenyl-4-yl)-N-(3-methylpyridin-2-yl)propanamide], at rat brain FAAH [2], the IC50 was 0.44 µM.
